Results as given in patent US10314827B2, “Methods of use of cyclopamine analogs” (Infinity Pharmaceuticals, Inc., priority 2006, dated 2019).

How the values were obtained:
[1] = test system: Hedgehog pathway; experiment: C3H10T1/2 osteoblast differentiation assay (alkaline phosphatase readout); type: cell-based, Mouse; conditions: Mus musculus, C3H 10T1/2; C3H10T1/2 cells, sonic Hedgehog 250 ng/ml, AP activity normalized to total protein; read-out: Differentiation Assay EC50 (approximate EC50 for inhibition)
Excerpt: Hedgehog pathway specific cancer cell killing effects may be ascertained using the following assay. C3H10T1/2 cells differentiate into osteoblasts when contacted with the sonic hedgehog peptide (Shh-N). Upon differentiation; these osteoblasts produce high levels of alkaline phosphatase (AP) which can be measured in an enzymatic assay (Nakamura et al., X BBRC (1997) 237:465). Compounds that block the differentiation of C3H10T1/2 into osteoblasts (a Shh dependent event) can therefore be identified by a reduction in AP production (van der Horst et al., Bone (2003) 33:899). The assay details are described below. The results approximate (EC50 for inhibition) of the differentiation assay is shown below in Table 1.
Mouse embryonic mesoderm fibroblasts C3H10T1/2 cells (obtained from ATCC) were cultured in Basal MEM Media (Gibco/Invitrogen) supplemented with 10% heat inactivated FBS (Hyclone), 50 units/ml penicillin and 50 ug/ml streptomycin (Gibco/Invitrogen) at 37° C. With 5% CO2 in air atmosphere.
C3H10T1/2 cells were plated in 96 wells with a density of 8×10^3 cells/well. Cells were grown to confluence (72 hrs). After sonic Hedgehog (250 ng/ml), and/or compound treatment, the cells were lysed in 110 μL of lysis buffer (50 mm Tris ph 7.4, 0.1% tritonx100), plates were sonicated and lysates spun through 0.2 μm PVDF plates (Corning). 40 μL of lysates was assayed for AP activity in alkaline buffer solution (Sigma) containing 1 mg/ml p-Nitrophenyl Phosphate. After incubating for 30 min at 37° C., the plates were read on an Envision plate reader at 405 nm. Total protein was quantified with a BCA protein assay kit from Pierce according to manufacturer's instructions. AP activity was normalized against total protein.

[2] = test system: murine Gli-1; experiment: q-RT-PCR of HH pathway genes in harvested BXPC-3 tumors, murine Gli-1; type: in vivo; conditions: tumors harvested 4 hours post last dose, 40 mg/kg/day orally, vs vehicle group
Procedure: The activity of Compound 42 was further tested in a human pancreatic model: BXPC-3 cells were implanted subcutaneously into the flanks of the right legs of mice. On day 42 post-tumor implant, the mice were randomized into two groups to receive either Vehicle (30% HPBCD) or Compound 42. Compound 42 administered orally at 40 mg/kg/day. […] At the end of the study, the tumors were harvested 4 hours post the last dose to evaluate an on target response by q-RT-PCR analysis of the HH pathway genes.

[3] = test system: medulloblastoma; experiment: Medulloblastoma model: Ptch1/Hic1 subcutaneous allografts, tumor growth; type: in vivo, mouse
Procedure: (§1) The activity of Compound 42 was also evaluated in a transgenic mouse model of medulloblastoma. Mice that are heterozygous for loss of function mutations in the tumor suppressors Patched1 (Ptch1) and Hypermethylated in Cancer (Hic1) develop spontaneous medulloblastoma. […] When passaged as subcutaneous allografts, these tumors grow aggressively and are Hedgehog pathway-dependent. This model was employed to evaluate the efficacy of orally administered Compound, and to correlate activity with drug exposure in plasma and tumors.
The approximate effective daily oral dose for 50% inhibition of tumor growth (ED50) is 4 mg/kg.

[4] = test system: Gli-1; experiment: Medulloblastoma model: Gli-1 mRNA expression in subcutaneously implanted tumors; type: in vivo, mouse; conditions: single oral dose, 8 hours post dose
Procedure: as §1

[5] = test system: LX22 cells; experiment: Lung cancer model: LX22 primary SCLC xenograft; type: in vivo, human
Excerpt: To test the activity of Compound 42 in a human SCLC tumor model, LX22 cells were implanted subcutaneously into the flank of the right leg. LX22 is primary xenograft model of SCLC derived from chemo-naive patients, which has been maintained by mouse to mouse passaging. This tumor responds to etoposide/carboplatin chemotherapy in way that closely resembles a clinical setting. LX22 regresses during chemotherapy treatment, goes through a period of remission, and then begins to recur. In the LX22 model, Compound single agent activity and its ability to modulate the chemoresistant recurrence was tested. On day 32 post tumor implant, mice were randomized into three dosing groups to receive Vehicle (30% HBPCD), Compound, or the chemotherapy combination of etoposide and carboplatin (E/P). […] Etoposide was administered i.v at 12 mg/kg on days 34, 35, 36, and 48, while Carboplatin was administered i.v. At 60 mg/kg on days 34, 41, and 48, post tumor implant. On day 50, the E/P treated mice were further randomized to receive either Vehicle (30% HPBCD) or Compound follow up treatment.

[6] = Oral multi-dose MTD; conditions: mouse, in vivo, mice
[7] = test system: KMS12; experiment: Multiple myeloma colony growth in methylcellulose, KMS12; type: cell-based, human; conditions: KMS12, treated 96 hours, colonies quantified 10-21 days later
Procedure: The ability of Compound 42 to inhibit the growth of multiple myeloma cells (MM) in vitro was tested, using human multiple myeloma cells lines (NCI-H929 and KMS12) and primary clinical bone marrow specimens derived from patients with MM. The cells were treated for 96 hours with Compound, washed, then plated in methylcellulose. Tumor colonies were quantified 10-21 days later as an indicator of cell growth potential following treatment.

[8] = test system: RL; experiment: NHL colony formation in methylcellulose, RL; type: cell-based, human; conditions: 1.0 um, 72 hours
Procedure: The ability of Compound 42 to inhibit the in vitro growth of human cell lines derived from patients with non-Hodgkin's lymphoma (cell lines RL and Jeko-1) and Hodgkin's disease (cell line L428) was studied. Each of the cell lines was treated for 72 hours with Compound 42 (1.0 um) followed by plating in methylcellulose.

[9] = test system: Gli-responsive luciferase reporter; experiment: Gli-responsive luciferase reporter transient transfection assay, REH; type: cell-based; conditions: 1 um, vehicle alone 6.73
Excerpt: (§2) The activity of Compound 42 (1 um) against three pre-B cell acute lymphocytic leukemia cell lines (REH, RS4-11, and Nalm-6) was studied, using a transient transfection assay in which a Gli-responsive luciferase reporter was transiently transfected into cells. Treatment with Compound 42 repressed luciferase activity compared to a vehicle treated control (Table 4).

[10] = test system: Gli-responsive luciferase reporter; experiment: Gli-responsive luciferase reporter transient transfection assay, RS4-11; type: cell-based; conditions: RS4-11, 1 um; vehicle alone 12.97
Excerpt: as §2

[11] = test system: Gli-responsive luciferase reporter; experiment: Gli-responsive luciferase reporter transient transfection assay, Nalm-6; type: cell-based; conditions: Nalm-6, 1 um; vehicle alone 8.42
Excerpt: as §2

[12] = test system: RS4-11; experiment: ALL colony formation in methylcellulose, RS4-11; type: cell-based; conditions: RS4-11, treated 72 hours
Procedure: The effect of Compound 42 on the growth of two of these cell lines, treated in vitro for 72 hours, was also studied. Following treatment, cells were washed and plated in methylcellulose.

## CC1=C2C[C@H]3[C@@H](CC[C@@H]4C[C@H](NS(C)(=O)=O)CC[C@@]43C)[C@@H]2CC[C@@]2(C1)O[C@@H]1C[C@H](C)CN[C@H]1[C@H]2C [Compound 42]
[1]
  EC50: < 20 nM
[2]
  murine Gli-1 mRNA levels (q-RT-PCR): robust down-regulation
[3]; Mus musculus, daily oral dosing, approximate, read-out: effective daily oral dose for 50% inhibition of tumor growth (ED50)
  ED50: ~4 mg/kg
[3]; daily (QD) PO administration
  inhibition of tumor growth: dose dependent inhibition of tumor growth, with frank tumor regression seen at higher doses
[3]; treated QD for 21 days
  long term survival following cessation of treatment: > 60 days
  tumor re-growth following cessation of treatment: little to no tumor re-growth
[4]
  HH pathway down-regulation measured by Gli-1 mRNA expression: dose-dependent down-regulation
[5]; follow up treatment from day 50, 40 mg/kg/day orally, 35 consecutive doses, p=0.0101
  tumor recurrence after etoposide/carboplatin (E/P), treated vs vehicle group: substantial delay in tumor recurrence
[5]; orally 40 mg/kg/day, 16 consecutive doses
  single agent activity, treated vs vehicle groups: no measurable difference
[6]
  MTD: 40 mg/kg/day
[7]
  growth of cells relative to untreated control (100%): less than 25%
[8]
  % colony formation with Compound 42 (relative to vehicle control): 14.3%
[9]
  Relative luc activity (+Compound): 1.12
[10]
  Relative luc activity (+Compound): 1.31
[11]
  Relative luc activity (+Compound): 1.44
[12]
  colony formation with Compound (relative to vehicle control) - 1° plating: 71
[12]; replating of colonies
  colony formation with Compound (relative to vehicle control) - 2° plating: 11
